# Read-outs that look alike come from different tables or passages of the source.
# Assays:
# [1] = amide bond, 13-membered ring, DMF, 25.0 °C, 0.33 h
# [2] = molecular target: T1, CFTR (Homo sapiens, UniProt P13569); assay: standard Ussing Chamber Assay for CFTR potentiator activity; type: cell-based; details: qualitative statement
# Target sequence in this assay (P13569 whole entry, species assumed): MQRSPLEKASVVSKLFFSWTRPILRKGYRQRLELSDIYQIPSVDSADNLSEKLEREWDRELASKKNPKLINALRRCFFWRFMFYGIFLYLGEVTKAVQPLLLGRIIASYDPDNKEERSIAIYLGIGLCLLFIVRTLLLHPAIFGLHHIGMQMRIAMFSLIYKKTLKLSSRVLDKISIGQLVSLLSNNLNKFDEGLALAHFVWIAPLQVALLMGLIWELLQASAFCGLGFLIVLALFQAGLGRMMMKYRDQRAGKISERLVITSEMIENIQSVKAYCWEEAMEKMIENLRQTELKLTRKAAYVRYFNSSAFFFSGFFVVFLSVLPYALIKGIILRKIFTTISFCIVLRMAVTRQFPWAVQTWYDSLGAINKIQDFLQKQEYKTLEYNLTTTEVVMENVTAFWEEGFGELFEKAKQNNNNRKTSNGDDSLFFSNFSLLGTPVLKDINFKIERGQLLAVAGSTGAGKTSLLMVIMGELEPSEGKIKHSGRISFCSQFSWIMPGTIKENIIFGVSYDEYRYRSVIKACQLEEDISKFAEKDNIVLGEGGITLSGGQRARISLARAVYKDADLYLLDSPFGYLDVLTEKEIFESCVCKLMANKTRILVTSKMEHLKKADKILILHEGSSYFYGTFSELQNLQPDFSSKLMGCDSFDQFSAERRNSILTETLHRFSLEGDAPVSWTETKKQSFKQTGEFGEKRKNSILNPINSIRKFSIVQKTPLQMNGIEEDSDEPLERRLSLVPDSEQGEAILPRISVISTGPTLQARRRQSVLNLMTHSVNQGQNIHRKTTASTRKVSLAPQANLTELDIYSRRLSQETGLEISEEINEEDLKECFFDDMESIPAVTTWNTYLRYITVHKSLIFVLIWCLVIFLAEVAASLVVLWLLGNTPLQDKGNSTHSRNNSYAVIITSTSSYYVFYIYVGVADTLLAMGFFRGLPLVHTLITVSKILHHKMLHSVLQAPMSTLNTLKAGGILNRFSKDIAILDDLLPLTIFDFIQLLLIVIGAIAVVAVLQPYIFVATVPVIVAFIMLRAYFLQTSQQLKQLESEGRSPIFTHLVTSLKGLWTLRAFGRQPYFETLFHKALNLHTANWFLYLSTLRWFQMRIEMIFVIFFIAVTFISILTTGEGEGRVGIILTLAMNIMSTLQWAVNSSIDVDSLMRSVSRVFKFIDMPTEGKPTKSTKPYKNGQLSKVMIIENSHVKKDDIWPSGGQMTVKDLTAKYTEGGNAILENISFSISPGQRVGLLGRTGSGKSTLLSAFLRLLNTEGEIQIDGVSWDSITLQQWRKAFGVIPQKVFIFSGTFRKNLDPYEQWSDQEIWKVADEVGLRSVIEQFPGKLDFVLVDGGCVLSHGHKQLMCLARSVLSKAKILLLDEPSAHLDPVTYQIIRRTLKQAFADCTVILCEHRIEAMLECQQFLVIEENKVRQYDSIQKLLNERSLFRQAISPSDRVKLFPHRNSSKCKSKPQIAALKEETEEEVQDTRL
# [3] = molecular target: T1, CFTR; assay: Membrane potential dye, Enteroid Assay A; type: cell-based; details: Table 6
# In short: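 Human intestinal enteroids incubated 18-24 h at 37 °C with test compound, then loaded with 20 μM methyl oxonol (with CaCC inhibitors). Chloride transport triggered in chloride-free buffer with 10 μM forskolin, 100 μM IBMX, 300 nM Compound III; fluorescence read 15 min, expressed as % of a triple-combination corrector/potentiator control.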
# Target sequence in this assay (P13569 with tags, fused parts or gaps DEL508-508): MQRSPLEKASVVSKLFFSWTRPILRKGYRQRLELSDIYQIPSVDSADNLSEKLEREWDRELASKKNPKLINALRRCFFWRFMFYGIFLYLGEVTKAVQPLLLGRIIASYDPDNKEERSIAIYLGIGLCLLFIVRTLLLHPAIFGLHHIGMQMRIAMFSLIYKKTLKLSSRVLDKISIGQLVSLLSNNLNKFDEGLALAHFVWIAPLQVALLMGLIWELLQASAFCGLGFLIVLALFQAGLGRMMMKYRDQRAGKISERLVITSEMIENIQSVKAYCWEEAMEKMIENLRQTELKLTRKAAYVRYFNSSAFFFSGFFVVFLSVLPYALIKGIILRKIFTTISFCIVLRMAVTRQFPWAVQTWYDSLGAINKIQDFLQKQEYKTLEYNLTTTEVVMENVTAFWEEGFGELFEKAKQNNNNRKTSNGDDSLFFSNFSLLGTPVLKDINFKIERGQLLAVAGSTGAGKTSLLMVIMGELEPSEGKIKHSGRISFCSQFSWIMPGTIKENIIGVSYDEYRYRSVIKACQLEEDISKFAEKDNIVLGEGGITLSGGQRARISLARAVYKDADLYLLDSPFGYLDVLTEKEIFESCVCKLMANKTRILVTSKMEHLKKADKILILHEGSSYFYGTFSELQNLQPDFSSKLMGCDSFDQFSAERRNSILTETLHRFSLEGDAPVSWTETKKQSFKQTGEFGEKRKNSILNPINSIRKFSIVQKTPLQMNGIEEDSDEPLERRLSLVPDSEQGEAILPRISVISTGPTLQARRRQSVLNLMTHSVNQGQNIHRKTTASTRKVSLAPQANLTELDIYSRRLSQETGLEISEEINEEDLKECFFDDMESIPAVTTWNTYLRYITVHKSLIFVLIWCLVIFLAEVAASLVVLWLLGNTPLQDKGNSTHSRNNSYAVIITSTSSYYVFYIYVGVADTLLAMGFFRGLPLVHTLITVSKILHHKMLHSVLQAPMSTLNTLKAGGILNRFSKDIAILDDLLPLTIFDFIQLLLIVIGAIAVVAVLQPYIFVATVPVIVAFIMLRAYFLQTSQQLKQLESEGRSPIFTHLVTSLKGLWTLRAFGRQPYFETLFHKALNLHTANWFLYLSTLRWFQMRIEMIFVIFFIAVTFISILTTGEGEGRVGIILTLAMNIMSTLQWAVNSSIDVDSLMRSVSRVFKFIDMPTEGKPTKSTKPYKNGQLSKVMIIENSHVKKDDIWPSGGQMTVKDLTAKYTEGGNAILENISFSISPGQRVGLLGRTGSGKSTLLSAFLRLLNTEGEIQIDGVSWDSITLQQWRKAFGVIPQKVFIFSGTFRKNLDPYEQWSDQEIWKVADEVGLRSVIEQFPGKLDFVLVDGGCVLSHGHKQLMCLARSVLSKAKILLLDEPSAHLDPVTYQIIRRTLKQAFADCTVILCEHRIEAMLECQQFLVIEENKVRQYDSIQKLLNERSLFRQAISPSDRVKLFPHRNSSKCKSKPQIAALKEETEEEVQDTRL
# [4] = from CNCC(COCc1ccccc1)Oc1cc(-c2c(C)cccc2C)nc(NS(=O)(=O)c2cccc(C(=O)O)c2)n1; amide bond; 13-membered ring; HATU/DIEA; DMF; 33.6 mM; 25.0 °C; 0.25 h
structure (smiles),measurement,setting,value
CCOC(=O)CCCCN1C(=O)c2cccc(n2)S(=O)(=O)Nc2nc(cc(-c3c(C)cccc3C)n2)OC[C@H]1CC(C)(C)C,"ring closure, crude yield","[1]; from CCOC(=O)CCCCN[C@@H](COc1cc(-c2c(C)cccc2C)nc(NS(=O)(=O)c2cccc(C(=O)O)n2)n1)CC(C)(C)C, HATU/DIEA, 26.1 mM",100%
COCN1c2nc(cc(-c3c(C)cccc3C)n2)OC[C@@H](CC(C)C)NC(=O)c2cccc(c2)S1(=O)=O,"ring closure, crude yield","[1]; from COCN(c1nc(OC[C@H](N)CC(C)C)cc(-c2c(C)cccc2C)n1)S(=O)(=O)c1cccc(C(=O)O)c1, HATU/Et3N, 106.0 mM",100%
"C[C@@H]1CCCCC[C@](O)(C(F)(F)F)C2=NN=C(O2)c2nc(c(C(F)(F)F)cc2N)O1 [(6R,12R)-17-amino-12-methyl-6,15-bis(trifluoromethyl)-13,19-dioxa-3,4,18-triazatricyclo[12.3.1.12,5]nonadeca-1(18),2,4,14,16-pentaen-6-ol]",CFTR modulatory activity,[2],confirmed
"Cc1cccc(C)c1-c1cc2nc(n1)NS(=O)(=O)c1cccc(c1)C(=O)N(C)CC(COCc1ccccc1)O2 (stereo not drawn) [Compound 99, 10-(benzyloxymethyl)-6-(2,6-dimethylphenyl)-12-methyl-2,2-dioxo-9-oxa-2λ^6-thia-3,5,12,19-tetrazatricyclo[12.3.1.14,8]nonadeca-1(18),4(19),5,7,14,16-hexaen-13-one]",Ent. A Max Activity,[3]; chloride transport as % of triple combination control (Enteroid Assay A),++ (++ is 30-60%)
same,EC50,"[3]; human enteroid cells, 18-24 hours, acute 10 μM forskolin and 300 nM ivacaftor, read-out: Ent. A EC50",1000 to 3000 nM
same,"ring closure, isolated yield",[4],58%
